Experimental data: ChEMBL document CHEMBL5143636, “Design, synthesis and structure-activity relationship studies of pyrido[2,3-d]pyrimidin-7-ones as potent Janus Kinase 3 (JAK3) covalent inhibitors” (Bioorg Med Chem Lett, 2022)
Values belong to the compound of their own block, whether it stands above or below them. Calls of active or inactive are those of the source. The rule behind the calls is not given here.

Assays:
[1] = biological target: T1, Tyrosine-protein kinase JAK3 (Homo sapiens, UniProt P52333)
T1 sequence (P52333 whole entry): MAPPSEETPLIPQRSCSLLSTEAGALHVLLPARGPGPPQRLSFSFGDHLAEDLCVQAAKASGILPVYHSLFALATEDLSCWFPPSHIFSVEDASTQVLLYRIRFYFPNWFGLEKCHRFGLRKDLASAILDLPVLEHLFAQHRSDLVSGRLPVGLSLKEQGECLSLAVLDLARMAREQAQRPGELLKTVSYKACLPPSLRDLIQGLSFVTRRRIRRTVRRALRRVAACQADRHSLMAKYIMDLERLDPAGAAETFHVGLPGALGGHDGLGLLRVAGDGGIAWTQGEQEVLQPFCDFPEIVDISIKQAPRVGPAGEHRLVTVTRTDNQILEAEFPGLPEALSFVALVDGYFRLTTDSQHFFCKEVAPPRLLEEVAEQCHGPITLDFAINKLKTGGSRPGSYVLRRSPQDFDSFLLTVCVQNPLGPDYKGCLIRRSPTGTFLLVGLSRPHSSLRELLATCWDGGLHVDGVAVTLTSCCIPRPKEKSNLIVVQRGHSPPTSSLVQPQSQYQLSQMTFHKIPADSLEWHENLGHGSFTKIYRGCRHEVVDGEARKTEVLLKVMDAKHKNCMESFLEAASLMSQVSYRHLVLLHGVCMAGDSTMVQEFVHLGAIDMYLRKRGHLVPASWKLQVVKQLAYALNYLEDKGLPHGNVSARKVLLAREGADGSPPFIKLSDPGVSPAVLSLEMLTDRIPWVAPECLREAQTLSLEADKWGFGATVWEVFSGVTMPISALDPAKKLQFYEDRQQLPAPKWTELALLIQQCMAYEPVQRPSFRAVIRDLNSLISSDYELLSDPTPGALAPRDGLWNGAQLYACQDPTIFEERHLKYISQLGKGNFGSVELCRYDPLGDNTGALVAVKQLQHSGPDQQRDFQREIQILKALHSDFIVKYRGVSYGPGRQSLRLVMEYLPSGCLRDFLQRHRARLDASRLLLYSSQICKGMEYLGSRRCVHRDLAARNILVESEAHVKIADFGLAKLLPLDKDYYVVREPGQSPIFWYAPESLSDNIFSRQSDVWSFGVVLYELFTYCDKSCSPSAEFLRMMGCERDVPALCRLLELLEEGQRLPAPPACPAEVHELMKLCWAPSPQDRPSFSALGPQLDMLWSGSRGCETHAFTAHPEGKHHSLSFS
Description: Covalent inhibition of recombinant recombinant human GST-tagged JAK3(781 to 1124 residues) expressed in baculovirus expression system incubated for 1 hr in the presence of ATP by FRET based Z'-LYTE assay

U-937 [2] = assay: Antiproliferative activity against human U-937 cells harbouring JAK3 M511 mutation assessed as reduction in cell viability incubated for 72 hrs by CCK-8 assay; format: functional, cell-based; conditions: U-937, 72 h
[3] = biological target: T1, Tyrosine-protein kinase JAK3; assay: Inhibition of JAK3 (unknown origin) incubated for 1 hr in the presence of ATP by FRET based Z'-LYTE assay
[4] = biological target: Tyrosine-protein kinase JAK1 (Homo sapiens, UniProt P23458); assay: Inhibition of JAK1 (unknown origin) incubated for 1 hr in the presence of ATP by FRET based Z'-LYTE assay
[5] = biological target: Tyrosine-protein kinase JAK2 (Homo sapiens, UniProt O60674); assay: Inhibition of JAK2 (unknown origin) incubated for 1 hr in the presence of ATP by FRET based Z'-LYTE assay
[6] = biological target: Non-receptor tyrosine-protein kinase TYK2 (Homo sapiens, UniProt P29597); assay: Inhibition of TYK2 (unknown origin) incubated for 1 hr in the presence of ATP by FRET based Z'-LYTE assay
[7] = biological target: Tyrosine-protein kinase BTK (Homo sapiens, UniProt Q06187); assay: Inhibition of BTK (unknown origin) incubated for 1 hr in the presence of ATP by FRET based Z'-LYTE assay
[8] = biological target: Epidermal growth factor receptor (Homo sapiens, UniProt P00533); assay: Inhibition of wild type EGFR (unknown origin) incubated for 1 hr in the presence of ATP by FRET based Z'-LYTE assay
[9] = biological target: Epidermal growth factor receptor (Homo sapiens, UniProt P00533, T790M); assay: Inhibition of EGFR T790M mutant (unknown origin) incubated for 1 hr in the presence of ATP by FRET based Z'-LYTE assay
[10] = Selectivity ratio of IC50 for inhibition of BTK (unknown origin) to IC50 for covalent inhibition of recombinant human GST-tagged JAK3 (781 to 1124 residues) expressed in baculovirus expression system
[11] = Selectivity ratio of IC50 for inhibition of wild type EGFR (unknown origin) to IC50 for covalent inhibition of recombinant human GST-tagged JAK3 (781 to 1124 residues) expressed in baculovirus expression system
[12] = Selectivity ratio of IC50 for inhibition of EGFR T790M mutant (unknown origin) to IC50 for covalent inhibition of recombinant human GST-tagged JAK3 (781 to 1124 residues) expressed in baculovirus expression system
Jurkat = assay: Antiproliferative activity against human Jurkat cells assessed as reduction in cell viability incubated for 72 hrs by CCK-8 assay; format: functional, cell-based
COLO 205 = assay: Antiproliferative activity against human COLO 205 cells assessed as reduction in cell viability incubated for 72 hrs by CCK-8 assay; format: functional, cell-based; conditions: COLO 205, 72 h
OCI-Ly3 = assay: Antiproliferative activity against human OCILY3 cells assessed as reduction in cell viability incubated for 72 hrs by CCK-8 assay; format: functional, cell-based; conditions: OCI-Ly3, 72 h
HCT-116 = assay: Antiproliferative activity against human HCT-116 cells assessed as reduction in cell viability incubated for 72 hrs by CCK-8 assay; format: functional, cell-based; conditions: HCT-116, 72 h
NCI-H1299 = assay: Antiproliferative activity against human NCI-H1299 cells assessed as reduction in cell viability incubated for 72 hrs by CCK-8 assay; format: functional, cell-based; conditions: NCI-H1299, 72 h
MOLT-4 = assay: Antiproliferative activity against human MOLT-4 cells assessed as reduction in cell viability incubated for 72 hrs by CCK-8 assay; format: functional, cell-based; conditions: MOLT-4, 72 h
MDA-MB-231 = assay: Antiproliferative activity against human MDA-MB-231 cells assessed as reduction in cell viability incubated for 72 hrs by CCK-8 assay; format: functional, cell-based; conditions: MDA-MB-231, 72 h
Daudi = assay: Antiproliferative activity against human Daudi cells assessed as reduction in cell viability incubated for 72 hrs by CCK-8 assay; format: functional, cell-based
[13] = biological target: T2, Tyrosine-protein kinase JAK3 (Homo sapiens) (UniProt P52333); assay: Inhibition of JAK3 phosphorylation in human U-937 cells measured after 12 hrs by Western blotting analysis; format: cell-based; conditions: dose 12.5-200 nM, DDE = dose-dependent effect
T2 sequence (whole entry): T1 sequence (P52333 whole entry)

[14] = biological target: T3, Signal transducer and activator of transcription 5A (Homo sapiens) (UniProt P42229); assay: Inhibition STAT5 phosphorylation in human U-937 cells measured after 12 hrs by Western blotting analysis; format: cell-based; conditions: dose 12.5-200 nM, DDE = dose-dependent effect
T3 sequence (whole entry): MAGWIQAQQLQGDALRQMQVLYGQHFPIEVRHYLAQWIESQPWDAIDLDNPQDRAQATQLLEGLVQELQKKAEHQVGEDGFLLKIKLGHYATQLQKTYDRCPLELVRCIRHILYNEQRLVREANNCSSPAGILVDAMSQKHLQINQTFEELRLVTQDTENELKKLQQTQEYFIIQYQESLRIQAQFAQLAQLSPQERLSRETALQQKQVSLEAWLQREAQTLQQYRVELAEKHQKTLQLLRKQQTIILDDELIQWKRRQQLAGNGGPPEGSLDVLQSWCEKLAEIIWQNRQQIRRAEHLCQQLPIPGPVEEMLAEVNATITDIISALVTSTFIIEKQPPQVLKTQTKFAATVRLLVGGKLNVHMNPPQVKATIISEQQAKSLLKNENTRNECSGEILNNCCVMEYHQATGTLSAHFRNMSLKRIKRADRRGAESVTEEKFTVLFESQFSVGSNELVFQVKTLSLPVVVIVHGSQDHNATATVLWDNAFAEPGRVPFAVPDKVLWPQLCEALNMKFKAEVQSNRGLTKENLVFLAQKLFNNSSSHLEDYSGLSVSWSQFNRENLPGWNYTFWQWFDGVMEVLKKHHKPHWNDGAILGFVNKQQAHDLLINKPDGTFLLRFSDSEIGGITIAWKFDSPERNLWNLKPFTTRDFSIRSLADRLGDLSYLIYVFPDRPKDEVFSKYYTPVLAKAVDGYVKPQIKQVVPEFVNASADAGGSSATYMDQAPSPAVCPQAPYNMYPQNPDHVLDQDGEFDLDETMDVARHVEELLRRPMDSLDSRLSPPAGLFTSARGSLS

U-937 [15] = assay: Effect on JAK3 protein level in human U-937 cells at 12.5 to 200 nM measured after 12 hrs by Western blotting analysis; format: functional, cell-based; conditions: dose 12.5-200 nM
U-937 [16] = assay: Effect on STAT5 protein level in human U-937 cells at 12.5 to 200 nM measured after 12 hrs by Western blotting analysis; format: functional, cell-based; conditions: dose 12.5-200 nM
[17] = biological target: T2, Tyrosine-protein kinase JAK3 (Homo sapiens); assay: Inhibition of JAK3 phosphorylation in human U-937 cells at 200 nM preincubated for 6 hrs followed by compound washout and measured upto 24 hrs by Western blotting analysis; format: cell-based
[18] = biological target: T3, Signal transducer and activator of transcription 5A (Homo sapiens); assay: Inhibition of STAT5 phosphorylation in human U-937 cells at 200 nM preincubated for 6 hrs followed by compound washout and measured upto 24 hrs by Western blotting analysis; format: cell-based

Chain of Tyrosine-protein kinase JAK1 (P23458 whole entry): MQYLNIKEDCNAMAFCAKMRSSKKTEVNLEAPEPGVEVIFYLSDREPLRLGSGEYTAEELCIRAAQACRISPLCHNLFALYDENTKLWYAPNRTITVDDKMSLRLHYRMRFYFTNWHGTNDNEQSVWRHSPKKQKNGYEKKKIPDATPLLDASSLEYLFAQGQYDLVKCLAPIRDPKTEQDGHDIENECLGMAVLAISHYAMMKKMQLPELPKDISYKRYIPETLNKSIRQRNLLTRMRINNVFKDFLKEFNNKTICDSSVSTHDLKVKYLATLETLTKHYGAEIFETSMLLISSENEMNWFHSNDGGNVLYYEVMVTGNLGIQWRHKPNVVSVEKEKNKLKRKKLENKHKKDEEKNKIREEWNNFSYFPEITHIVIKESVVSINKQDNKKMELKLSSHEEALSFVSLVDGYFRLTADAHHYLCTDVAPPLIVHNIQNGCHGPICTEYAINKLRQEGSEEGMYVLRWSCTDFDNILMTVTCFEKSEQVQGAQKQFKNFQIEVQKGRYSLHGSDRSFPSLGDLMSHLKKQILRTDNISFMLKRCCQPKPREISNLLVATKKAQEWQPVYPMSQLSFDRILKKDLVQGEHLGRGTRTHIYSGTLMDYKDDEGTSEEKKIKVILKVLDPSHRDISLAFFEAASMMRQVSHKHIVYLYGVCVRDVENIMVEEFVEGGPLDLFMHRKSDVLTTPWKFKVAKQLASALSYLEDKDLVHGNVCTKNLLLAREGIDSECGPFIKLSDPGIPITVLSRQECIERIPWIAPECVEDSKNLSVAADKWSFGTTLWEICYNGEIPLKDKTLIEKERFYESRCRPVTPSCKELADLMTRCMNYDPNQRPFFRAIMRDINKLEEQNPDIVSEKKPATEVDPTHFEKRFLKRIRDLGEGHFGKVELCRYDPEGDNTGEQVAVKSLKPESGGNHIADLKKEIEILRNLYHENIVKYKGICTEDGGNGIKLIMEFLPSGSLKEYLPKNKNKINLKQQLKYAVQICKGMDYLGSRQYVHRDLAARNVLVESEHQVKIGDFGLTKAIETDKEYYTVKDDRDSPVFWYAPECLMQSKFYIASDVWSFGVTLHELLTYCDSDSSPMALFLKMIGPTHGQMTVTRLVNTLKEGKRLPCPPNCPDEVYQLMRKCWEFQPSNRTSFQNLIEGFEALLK
Chain of Non-receptor tyrosine-protein kinase TYK2 (P29597 whole entry): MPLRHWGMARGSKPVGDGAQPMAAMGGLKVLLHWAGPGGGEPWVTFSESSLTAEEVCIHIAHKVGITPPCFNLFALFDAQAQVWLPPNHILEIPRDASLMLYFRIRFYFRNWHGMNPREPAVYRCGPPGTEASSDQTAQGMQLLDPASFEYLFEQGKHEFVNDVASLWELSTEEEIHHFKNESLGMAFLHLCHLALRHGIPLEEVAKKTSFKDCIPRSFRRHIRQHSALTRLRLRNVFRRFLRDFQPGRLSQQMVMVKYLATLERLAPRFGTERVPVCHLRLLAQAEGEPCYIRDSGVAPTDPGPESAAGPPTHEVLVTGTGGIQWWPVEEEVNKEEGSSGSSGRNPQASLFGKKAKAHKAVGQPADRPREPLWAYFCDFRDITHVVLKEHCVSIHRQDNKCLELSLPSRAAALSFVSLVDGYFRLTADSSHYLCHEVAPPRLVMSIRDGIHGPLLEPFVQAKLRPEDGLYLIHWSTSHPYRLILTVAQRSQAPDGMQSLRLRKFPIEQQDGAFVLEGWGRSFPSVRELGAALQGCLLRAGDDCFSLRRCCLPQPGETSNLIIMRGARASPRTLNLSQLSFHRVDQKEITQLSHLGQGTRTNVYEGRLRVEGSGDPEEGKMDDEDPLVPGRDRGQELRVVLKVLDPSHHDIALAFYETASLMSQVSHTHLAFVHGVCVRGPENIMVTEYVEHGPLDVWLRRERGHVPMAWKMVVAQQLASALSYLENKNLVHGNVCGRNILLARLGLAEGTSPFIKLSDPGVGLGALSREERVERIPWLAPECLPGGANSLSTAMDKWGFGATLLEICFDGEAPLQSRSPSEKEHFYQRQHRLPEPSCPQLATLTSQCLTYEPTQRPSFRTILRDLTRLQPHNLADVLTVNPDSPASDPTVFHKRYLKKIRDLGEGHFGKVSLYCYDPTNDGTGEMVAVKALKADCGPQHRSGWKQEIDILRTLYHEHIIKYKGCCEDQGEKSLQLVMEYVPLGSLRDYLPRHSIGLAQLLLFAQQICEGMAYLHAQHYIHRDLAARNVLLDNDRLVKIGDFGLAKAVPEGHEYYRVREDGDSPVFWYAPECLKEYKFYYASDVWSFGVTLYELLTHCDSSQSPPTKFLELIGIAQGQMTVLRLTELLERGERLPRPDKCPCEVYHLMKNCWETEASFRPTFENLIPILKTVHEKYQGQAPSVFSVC
Chain of Tyrosine-protein kinase JAK2 (O60674 whole entry): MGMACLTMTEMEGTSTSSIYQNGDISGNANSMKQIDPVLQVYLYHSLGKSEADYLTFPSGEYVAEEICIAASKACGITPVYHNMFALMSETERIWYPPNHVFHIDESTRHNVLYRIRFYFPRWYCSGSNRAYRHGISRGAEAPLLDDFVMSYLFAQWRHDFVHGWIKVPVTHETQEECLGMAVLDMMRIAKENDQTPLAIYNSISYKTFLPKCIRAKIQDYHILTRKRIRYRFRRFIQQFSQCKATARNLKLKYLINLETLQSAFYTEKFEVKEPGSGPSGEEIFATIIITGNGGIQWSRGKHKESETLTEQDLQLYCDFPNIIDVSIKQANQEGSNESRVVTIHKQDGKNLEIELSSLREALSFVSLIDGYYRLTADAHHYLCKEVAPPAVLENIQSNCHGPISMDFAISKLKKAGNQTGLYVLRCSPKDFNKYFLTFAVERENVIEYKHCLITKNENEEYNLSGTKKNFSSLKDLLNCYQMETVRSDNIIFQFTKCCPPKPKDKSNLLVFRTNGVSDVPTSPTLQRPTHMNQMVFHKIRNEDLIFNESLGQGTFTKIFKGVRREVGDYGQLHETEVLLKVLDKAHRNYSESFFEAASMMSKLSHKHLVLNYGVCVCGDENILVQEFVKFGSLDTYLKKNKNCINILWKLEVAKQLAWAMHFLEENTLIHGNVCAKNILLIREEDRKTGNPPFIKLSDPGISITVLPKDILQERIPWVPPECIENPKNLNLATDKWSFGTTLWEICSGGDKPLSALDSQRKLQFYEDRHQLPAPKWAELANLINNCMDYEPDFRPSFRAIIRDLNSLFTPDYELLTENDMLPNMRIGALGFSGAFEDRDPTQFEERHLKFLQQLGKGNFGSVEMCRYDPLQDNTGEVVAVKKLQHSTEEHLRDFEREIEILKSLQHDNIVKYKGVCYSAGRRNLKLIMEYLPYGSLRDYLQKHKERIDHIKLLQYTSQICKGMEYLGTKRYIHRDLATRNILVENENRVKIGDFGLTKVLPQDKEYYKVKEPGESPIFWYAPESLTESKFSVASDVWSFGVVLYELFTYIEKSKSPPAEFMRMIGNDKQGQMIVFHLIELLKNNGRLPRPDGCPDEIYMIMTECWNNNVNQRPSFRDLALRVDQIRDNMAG
Chain of Epidermal growth factor receptor (Homo sapiens, UniProt P00533, T790M) (P00533 25-1210 T790M limits assumed): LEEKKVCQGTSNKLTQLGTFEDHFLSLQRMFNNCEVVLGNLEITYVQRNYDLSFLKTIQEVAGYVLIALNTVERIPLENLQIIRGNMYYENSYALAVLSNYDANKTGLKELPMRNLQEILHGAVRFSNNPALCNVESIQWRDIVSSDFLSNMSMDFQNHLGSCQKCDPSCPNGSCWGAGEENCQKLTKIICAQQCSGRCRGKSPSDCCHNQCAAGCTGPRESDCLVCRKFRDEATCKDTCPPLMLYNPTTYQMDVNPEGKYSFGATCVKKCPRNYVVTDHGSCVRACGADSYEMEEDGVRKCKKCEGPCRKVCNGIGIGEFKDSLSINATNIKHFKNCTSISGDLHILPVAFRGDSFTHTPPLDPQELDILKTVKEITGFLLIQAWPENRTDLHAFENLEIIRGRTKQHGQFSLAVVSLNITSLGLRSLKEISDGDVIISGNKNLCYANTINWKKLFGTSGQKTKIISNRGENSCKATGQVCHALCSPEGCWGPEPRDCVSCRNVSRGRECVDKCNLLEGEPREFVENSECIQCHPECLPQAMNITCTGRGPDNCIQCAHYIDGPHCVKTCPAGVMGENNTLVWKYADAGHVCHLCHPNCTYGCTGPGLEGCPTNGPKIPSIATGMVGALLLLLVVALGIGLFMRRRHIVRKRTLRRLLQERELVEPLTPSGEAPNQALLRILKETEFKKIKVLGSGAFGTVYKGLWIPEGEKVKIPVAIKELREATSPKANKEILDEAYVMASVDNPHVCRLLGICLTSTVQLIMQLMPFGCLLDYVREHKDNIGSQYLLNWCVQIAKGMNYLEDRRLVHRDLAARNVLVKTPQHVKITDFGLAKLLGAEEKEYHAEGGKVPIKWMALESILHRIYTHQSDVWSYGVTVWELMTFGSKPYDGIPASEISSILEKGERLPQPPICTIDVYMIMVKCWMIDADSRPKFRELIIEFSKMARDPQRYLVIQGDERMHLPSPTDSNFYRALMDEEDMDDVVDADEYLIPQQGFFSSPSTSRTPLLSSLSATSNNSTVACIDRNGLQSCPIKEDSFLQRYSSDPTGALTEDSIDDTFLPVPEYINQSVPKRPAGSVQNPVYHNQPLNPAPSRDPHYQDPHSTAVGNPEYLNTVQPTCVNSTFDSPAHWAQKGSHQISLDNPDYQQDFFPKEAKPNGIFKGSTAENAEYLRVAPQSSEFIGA

SMILES: C=CC(=O)Nc1cccc(Cn2c(=O)ccc3cnc(Nc4cnn(CCO)c4)nc32)c1
- IC50 [1]: 1.7 nM
- IC50 (U-937 [2]): 470 nM

SMILES: C=CC(=O)N1C[C@H](Nc2ncnc3[nH]ccc23)CC[C@@H]1C [RITLECITINIB]
- IC50 (U-937 [2]): 40 nM

SMILES: C=CC(=O)Nc1cccc(Cn2c(=O)ccc3cnc(Nc4cnn(CCOC)c4)nc32)c1
- IC50 [1]: 3.3 nM
- IC50 (U-937 [2]): 430 nM

SMILES: CCC(=O)Nc1cccc(Cn2c(=O)ccc3cnc(Nc4ccccc4OC)nc32)c1
- IC50 [1]: > 10000 nM

SMILES: C=CC(=O)Nc1cccc(Cn2c(=O)ccc3cnc(Nc4cnn(C)c4)nc32)c1
- IC50 [1]: 1.8 nM
- IC50 (U-937 [2]): 220 nM

SMILES: C=CC(=O)Nc1cccc(Cn2c(=O)ccc3cnc(Nc4ccccc4OC)nc32)c1
- IC50 [1]: 3 nM
- IC50 (U-937 [2]): 2020 nM

SMILES: C=CC(=O)Nc1cccc(Cn2c(=O)ccc3cnc(Nc4ccc(N(C)CCN(C)C)cc4OC)nc32)c1
- IC50 [1]: 3.1 nM
- IC50 (U-937 [2]): 520 nM

SMILES: C=CC(=O)Nc1cccc(Cn2c(=O)ccc3cnc(Nc4cnn(C5CCN(C)CC5)c4)nc32)c1
- IC50 [1]: 2 nM
- IC50 (U-937 [2]): 70 nM

SMILES: C/C=C/C(=O)Nc1cccc(Cn2c(=O)ccc3cnc(Nc4ccccc4OC)nc32)c1
- IC50 [1]: 4800 nM

SMILES: C=CC(=O)Nc1cccc(Cn2c(=O)ccc3cnc(Nc4ccc(N5CCN(C)CC5)cc4)nc32)c1
- IC50 [1]: 2 nM
- IC50 [4]: 2430 nM
- IC50 [5]: 1130 nM
- IC50 [6]: 8880 nM
- IC50 [7]: 15.6 nM
- IC50 [8]: 261 nM
- IC50 [9]: 216 nM
- Ratio IC50 [10]: 8
- Ratio IC50 [11]: > 100
- Ratio IC50 [12]: > 100
- IC50 (U-937 [2]): 50 nM
- IC50 (Jurkat): 2280 nM
- IC50 (COLO 205): 3840 nM
- IC50 (OCI-Ly3): 1530 nM
- IC50 (HCT-116): 3690 nM
- IC50 (NCI-H1299): 4780 nM
- IC50 (MOLT-4): 2250 nM
- IC50 (MDA-MB-231): 3030 nM
- IC50 (Daudi): 2070 nM
- inhibition [13]: Dde
- inhibition [14]: Dde
- Activity (U-937 [15]): Active
- Activity (U-937 [16]): Active
- inhibition [17]: Active
- inhibition [18]: Active

SMILES: C=CC(=O)Nc1ccccc1Cn1c(=O)ccc2cnc(Nc3ccccc3OC)nc21
- IC50 [1]: > 10000 nM

SMILES: C=CC(=O)Nc1ccc(Cn2c(=O)ccc3cnc(Nc4ccccc4OC)nc32)cc1
- IC50 [1]: 72.1 nM

Other lines, results leading:

- IC50 [1]: 9.8 nM
- IC50 (U-937 [2]): 1810 nM
SMILES: C=CC(=O)Nc1cccc(Cn2c(=O)ccc3cnc(Nc4ccc(N5CCN(C)CC5)cc4OCC)nc32)c1

- IC50 [3]: 31.3 nM
SMILES: C=CC(=O)Nc1cccc(-n2c(=O)cc(C)c3cnc(Nc4ccc(N5CCN(C)CC5)cc4OC)nc32)c1

- IC50 [1]: 3.3 nM
- IC50 (U-937 [2]): 540 nM
SMILES: C=CC(=O)Nc1cccc(Cn2c(=O)ccc3cnc(Nc4ccc(N5CCN(C(C)=O)CC5)cc4OC)nc32)c1

- IC50 [1]: 18.2 nM
SMILES: C=CC(=O)Nc1cccc(Cn2c(=O)cc(C)c3cnc(Nc4ccc(N5CCN(C)CC5)cc4OC)nc32)c1

- IC50 [1]: 4.1 nM
- IC50 (U-937 [2]): 520 nM
SMILES: C=CC(=O)Nc1cccc(Cn2c(=O)ccc3cnc(Nc4ccc(C5CCN(C)CC5)cc4OC)nc32)c1

- IC50 [1]: 20 nM
SMILES: C=CC(=O)Nc1cccc(Cn2c(=O)cc(CC)c3cnc(Nc4ccc(N5CCN(C)CC5)cc4OC)nc32)c1

- IC50 [1]: 1.6 nM
- IC50 (U-937 [2]): 470 nM
SMILES: C=CC(=O)Nc1cccc(Cn2c(=O)ccc3cnc(Nc4ccc(N5CCN(C)CC5)cc4OC)nc32)c1

- IC50 [1]: 1450 nM
SMILES: C=CC(=O)Nc1cccc(Cn2c(=O)cc(C3CC3)c3cnc(Nc4ccc(N5CCN(C)CC5)cc4OC)nc32)c1

- IC50 [1]: > 10000 nM
SMILES: C=CC(=O)Nc1cccc(Cn2c(=O)cc(CCC)c3cnc(Nc4ccc(N5CCN(C)CC5)cc4OC)nc32)c1

- IC50 [1]: 1300 nM
SMILES: C=CC(=O)Nc1cccc(Cn2c(=O)ccc3cnc(Nc4ccc(N5CCN(C)CC5)cc4OC(C)C)nc32)c1
